In patent publication US12649735B2 (HAIHE BIOPHARMA CO., LTD., priority 2019, dated 2026):

Legend:
[1] = target: T1, bromodomain protein BRD4 BD2 (Homo sapiens, UniProt O60885); assay: HTRF in vitro assay, inhibitory activity against BRD4 BD2; type: binding; conditions: BRD4(2) 30 nM in final system
T1 construct: The proteins BRD4 BD1/BD2 used in the experiment were purchased from Active Motif Company (Cat. No. 31380/31446); purchased Active Motif 31446
Procedure: (§1) The inhibitory activity of the compound against BRD4 BD1 was determined by using Homogeneous Time-Resolved Fluorescence (HTRF).
(§2) The proteins BRD4 BD1/BD2 used in the experiment were purchased from Active Motif Company (Cat. No. 31380/31446); Streptavidin XL-665 (#610SAXLA) and EPIgeneous Binding Domain Kit A (#62BDAPEG) were purchased from Cisbio Bioassays Company, [Lys(5,8,12,16)Ac]H4(1-21)-biotin (#64989), and [Lys(5,8,12,16)Ac]H4(1-25) were products of AnaSpec company; OTX015 and ABBV-075 were purchased from SelleckChem. 384 Well ProxiPlate (#6008280) was purchased from PerkinElmer. The multifunctional microplate reader used for the experimental was a product of PerkinElmer, model: Envision 2104. The experimental water was Millipore-Q pure water.
(§3) 10 mM of stock solution of compound in DMSO was diluted to 1 mM with DMSO and stored, and then diluted 10 times with Binding Domain dilution buffer (purchased from Cisbio Bioassays) for use (the concentration of DMSO in the final system was […]), 1:5 gradient dilution, a total of 5 concentrations.
(§4) 4. Test Method: 1 Batch, 2 Duplicate Wells
(§5) • 1) 5 μL of test compound was transferred to 45 μL of Binding Domain dilution buffer. • 2) 2 μL of 10× compound (4 μL Binding Domain dilution buffer: positive control; 6 μL enzyme buffer (purchased from Cisbio Bioassays): negative control) was transferred to the reaction plate. • 3) 4 μL of 5×BRD4(1) or BRD4(2) (30 nM in final system) was added to the reaction plate. • 4) 4 μL of 5×[Lys(5,8,12,16)Ac]H4(1-21)-biotin was added to the reaction plate, and the plate was covered with a film, and incubated at 37° C. for 30 min. • 5) A detection mixture of SA-XL665 (2×) and anti-H3K9me0-Eu(K) (2×) was prepared in detection buffer (purchased from Cisbio Bioassays). • 6) 10 μL of detection mixture (2×) was added to each well, and incubated for 3 h at room temperature, and the mp value was read using a multi-plate reader Envision. The parameters were set as follows.

[2] = target: T2, bromodomain protein BRD4 BD1 (Homo sapiens, UniProt O60885); assay: HTRF in vitro assay, inhibitory activity against BRD4 BD1; type: binding; conditions: BRD4(1) 30 nM in final system
T2 construct: The proteins BRD4 BD1/BD2 used in the experiment were purchased from Active Motif Company (Cat. No. 31380/31446); purchased Active Motif 31380
Procedure: In this example, the half inhibitory activity (IC50) of the compounds of the present invention against the bromodomain protein BRD4 BD1 was determined.
as §1, §2, §3, §4, §5

| Compound | IC50 [1] [µM] | IC50 [2] [µM] |
| --- | --- | --- |
| CCNC(=O)c1cc2c(-c3cc(C(C)=O)c4cccnc4c3OC)cn(C)c(=O)c2[nH]1 [Compound A37, 4-(5-acetyl-8-methoxyquinolin-7-yl)-N-ethyl-6-methyl-7-oxo-6,7-dihydro-1H-pyrrolo[2,3-c]pyridin-2-carboxamide] | 0.01 to 0.1 | 0.1 to 1 |
| CC(c1ccc(F)cc1)c1cn(C)c(=O)c2[nH]c(-c3cnn(C(CO)CN4CCN(C)CC4)c3)cc12 (stereo not shown) [Compound A62, 4-(1-(4-fluorophenyl)ethyl)-2-(1-(1-hydroxy-3-(4-methylpiperazin-1-yl)propan-2-yl)-1H-pyrazol-4-yl)-6-methyl-1,6-dihydro-7H-pyrrolo[2,3-c]pyridin-7-one] | ≤ 0.01 | 0.1 to 1 |
| CC(c1ccccc1)c1cn(C)c(=O)c2cc(-c3cn(C)nc3[N+](=O)[O-])sc12 (stereo not shown) [Compound A41, 5-methyl-2-(1-methyl-3-nitro-1H-pyrazol-4-yl)-7-(1-phenylethyl)thieno[3,2-c]pyridin-4(5H)-one] | 0.1 to 1 | 0.1 to 1 |
| CCNC(=O)c1cc2c(-c3nc(CO)cn3-c3ccc(C)cc3)cn(C)c(=O)c2[nH]1 [Compound A36, N-ethyl-4-(4-(hydroxymethyl)-1-(p-tolyl)-1H-imidazol-2-yl)-6-methyl-7-oxo-6,7-dihydro-1H-pyrrolo[2,3-c]pyridin-2-carboxamide] | 0.01 to 0.1 | 0.1 to 1 |
| CC(c1ccc(Cl)cc1)c1cn(C)c(=O)c2[nH]c(C(=O)Nc3cnn(C)c3)cc12 (stereo not shown) [Compound A64, 4-(1-(4-chlorophenyl)ethyl)-6-methyl-N-(1-methyl-1H-pyrazol-4-yl)-7-oxo-6,7-dihydro-1H-pyrrolo[2,3-c]pyridin-2-carboxamide] | 0.01 to 0.1 | 0.1 to 1 |
| CC(c1ccccc1)c1cn(C)c(=O)c2[nH]c(-c3cn[nH]c3)cc12 (stereo not shown) [Compound A15, 6-methyl-4-(1-phenethyl)-2-(1H-pyrazol-4-yl)-1,6-dihydro-7H-pyrrolo[2,3-c]pyridin-7-one] | ≤ 0.01 | 0.1 to 1 |
| CC(c1ccccc1)c1cn(C)c(=O)c2[nH]c(-c3ccnc(C(F)(F)F)c3)cc12 (stereo not shown) [Compound A16, 6-methyl-4-(1-phenethyl)-2-(2-(trifluoromethyl)pyridin-4-yl)-1,6-dihydro-7H-pyrrolo[2,3-c]pyridin-7-one] | 0.01 to 0.1 | 0.1 to 1 |
| Cn1cc2c(Cc3ccccc3)cn(C)c(=O)c2c1 [Compound A2] | 0.01 to 0.1 | 0.1 to 1 |
| CC(c1ccccc1)c1cn(C)c(=O)c2[nH]c(-c3cncnc3)cc12 (stereo not shown) [Compound A45] | ≤ 0.01 | 0.01 to 0.1 |
| CCNC(=O)c1cc2c(-c3nc4ncccc4n3-c3cc(C)c(F)c(C)c3)cn(C)c(=O)c2[nH]1 [Compound A30, N-ethyl-4-(1-(4-fluoro-3,5-dimethylphenyl)-1H-imidazo[4,5-b]pyridin-2-yl)-6-methyl-7-oxo-6,7-dihydro-1H-pyrrolo[2,3-c]pyridin-2-carboxamide] | ≤ 0.01 | 0.01 to 0.1 |
| CC(c1ccc(F)cc1)c1cn(C)c(=O)c2[nH]c(-c3cn[nH]c3)cc12 (stereo not shown) [Compound A19, 4-(1-(4-fluorophenyl)ethyl)-6-methyl-2-(1H-pyrazol-4-yl)-1,6-dihydro-7H-pyrrolo[2,3-c]pyridin-7-one] | ≤ 0.01 | 0.1 to 1 |
| CC(c1ccccc1)c1cn(C)c(=O)c2[nH]c(-c3c[nH]cn3)cc12 (stereo not shown) [Compound A47] | ≤ 0.01 | 0.01 to 0.1 |
| CCNC(=O)c1cc2c(Cc3ccccc3)cn(C)c(=O)c2[nH]1 [Compound A10, 4-benzyl-N-ethylamino-6-methyl-7-oxo-6,7-dihydro-1H-pyrrolo[2,3-c]pyridin-2-carboxamide] | 0.01 to 0.1 | 0.1 to 1 |
| Cc1ccc(C2CCC(=O)N2c2cn(C)c(=O)c3[nH]c(-c4cnn(C)c4)cc23)cc1 (stereo not shown) [Compound A48, 6-methyl-2-(1-methyl-1H-pyrazol-4-yl)-4-(2-oxo-5-(p-tolyl)pyrrolidin-1-yl)-1,6-dihydro-7H-pyrrolo[2,3-c]pyridin-7-one] | 0.01 to 0.1 | 0.1 to 1 |
| CCNC(=O)c1cc2c(-c3c(C4CC4)nn(C)c3C3CC3)cn(C)c(=O)c2[nH]1 [Compound A34, 4-(3,5-dicyclopropyl-1-methyl-1H-pyrazol-4-yl)-N-ethyl-6-methyl-7-oxo-6,7-dihydro-1H-pyrrolo[2,3-c]pyridin-2-carboxamide] | 0.01 to 0.1 | 0.1 to 1 |
| Cc1cc(C)cc(-n2c(-c3cn(C)c(=O)c4[nH]c(-c5cnn(C)c5)cc34)nc3ncccc32)c1 [Compound A49, 4-(1-(3,5-dimethylphenyl)-1H-imidazo[4,5-b]pyridin-2-yl)-6-methyl-2-(1-methyl-1H-pyrazol-4-yl)-1,6-di hydro-7H-pyrrolo[2,3-c]pyridin-7-one] | ≤ 0.01 | 0.01 to 0.1 |
| Cc1cc(F)cc(C)c1-n1c(-c2cn(C)c(=O)c3[nH]c(C(=O)Nc4ccn(C)n4)cc23)nc2ncccc21 [Compound A52] | ≤ 0.01 | 0.01 to 0.1 |
| Cc1cc(C)cc(-n2c(-c3cn(C)c(=O)c4[nH]c(C(=O)Nc5ccn(C)n5)cc34)nc3ncccc32)c1 [Compound A51] | ≤ 0.01 | 0.01 to 0.1 |

Further lines, results first:

| IC50 [1] [µM] | IC50 [2] [µM] | Compound |
| --- | --- | --- |
| ≤ 0.01 | 0.1 to 1 | CC(c1ccccc1)c1cn(C)c(=O)c2[nH]c(-c3cnn(C4COC4)c3)cc12 (stereo not shown) [Compound A17, 6-methyl-2-(1-(oxetan-3-yl)-1H-pyrazol-4-yl)-4-(1-phenethyl)-1,6-dihydro-7H-pyrrolo[2,3-c]pyridin-7-one] |
| ≤ 0.01 | 0.1 to 1 | CC(c1ccccc1)c1cn(C)c(=O)c2[nH]c(C(=O)Nc3cnn(C)c3)cc12 (stereo not shown) [Compound A12, 6-methyl-N-(1-methyl-1H-pyrazol-4-yl)-7-oxo-4-(1-phenethyl)-6,7-dihydro-1H-pyrrolo[2,3-c]pyridin-2-carboxamide] |
| 0.01 to 0.1 | 0.1 to 1 | Cn1cc(Oc2ccccc2)c2cc(-c3cnn(C4COC4)c3)[nH]c2c1=O [Compound A68, 6-methyl-2-(1-(oxetan-3-yl)-1H-pyrazol-4-yl)-4-phenoxy-1,6-dihydro-7H-pyrrolo[2,3-c]pyridin-7-one] |
| 0.01 to 0.1 | 0.1 to 1 | COC(c1ccccc1)c1cn(C)c(=O)c2[nH]c(-c3cnn(C)c3)cc12 (stereo not shown) [Compound A43, 4-(methoxy(phenyl)methyl)-6-methyl-2-(1-methyl-1H-pyrazol-4-yl)-1,6-dihydro-7H-pyrrolo[2,3-c]pyridin-7-one] |
| 0.01 to 0.1 | 0.1 to 1 | CC(c1ccccc1)c1cn(C)c(=O)c2[nH]c(-c3cnoc3)cc12 (stereo not shown) [Compound A20, 2-(isoxazol-4-yl)-6-methyl-4-(1-phenethyl)-1H-pyrrolo[2,3-c]pyridin-7(6H)-one] |
| ≤ 0.01 | 0.1 to 1 | CC(c1cccc(Cl)c1F)c1cn(C)c(=O)c2[nH]c(-c3cnn(C4COC4)c3)cc12 (stereo not shown) [Compound A75, 4-(1-(3-chloro-2-fluorophenyl)ethyl)-6-methyl-2-(1-(oxetan-3-yl)-1H-pyrazol-4-yl)-1,6-dihydro-7H-pyrrolo[2,3-c]pyridin-7-one] |
| 0.01 to 0.1 | 0.1 to 1 | CC(c1ccccc1)c1cn(C)c(=O)c2cc(-c3cnn(C4COC4)c3)oc12 (stereo not shown) [Compound A59, 5-methyl-2-(1-(oxetan-3-yl)-1H-pyrazol-4-yl)-7-(1-phenethyl)furo[3,2-c]pyridin-4(5H)-one] |
| 0.01 to 0.1 | 0.1 to 1 | CC(c1ccc(N2CCN(C)CC2)cc1)c1cn(C)c(=O)c2[nH]c(-c3cnn(C4COC4)c3)cc12 (stereo not shown) [Compound A63, 6-methyl-4-(1-(4-(4-methylpiperazin-1-yl)phenyl)ethyl)-2-(1-(oxetan-3-yl)-1H-pyrazol-4-yl)-1,6-dihydro-7H-pyrrolo[2,3-c]pyridin-7-one] |
| ≤ 0.01 | 0.01 to 0.1 | CC(c1ccccc1)c1cn(C)c(=O)c2[nH]c(-c3ccoc3)cc12 (stereo not shown) [Compound A46] |
| ≤ 0.01 | 0.1 to 1 | CC(c1cccc(F)c1F)c1cn(C)c(=O)c2[nH]c(-c3cnn(C4COC4)c3)cc12 (stereo not shown) [Compound A74, 4-(1-(2,3-difluorophenyl)ethyl)-6-methyl-2-(1-(oxetan-3-yl)-1H-pyrazol-4-yl)-1,6-dihydro-7H-pyrrolo[2,3-c]pyridin-7-one] |
| 0.01 to 0.1 | 0.1 to 1 | CC(c1ccccc1)c1cn(C)c(=O)c2c(C(=O)O)c(-c3cnn(C)c3)oc12 (stereo not shown) [Compound A60, 5-methyl-2-(1-methyl-1H-pyrazol-4-yl)-4-oxo-7-(1-phenethyl)-4,5-dihydrofuro[3,2-c]pyridin-3-carboxylic acid] |
